Reference: patent publication US5288705A, “Manipulation of ovulation and spawning in fish” (Israel Oceanographic & Limnological Research Ltd., priority 1988, dated 1994)

What was measured:
Type in all cases: in vivo
[1] = tested on: females of rainbow trout, Salmo gaixdneri; assay: Blood GtH levels after hormone administration (Example 4)
Procedure: (§1) 24 females of rainbow trout, Salmo gaixdneri, were divided into four groups, six fish in each group. Each group received one of the following treatments:
(§2) 1. Injection of the mammalian GnRHa as in Example 1 ([…] body weight), in saline;
(§3) 2. Administration of a biodegradable copolymer of polylactic-polyglycolic acid containing the same GnRHa (150 mg/fish 150 μg/fish) in pellets, implanted under the fish's skin;
(§4) 3. Ethylene vinyl acetate copolymer pellets containing a fish GnRH analog (GNRHH) - [D-Arg^6 -Pro^9 -NET]sGnRH (150 mg/fish 150 μg/fish),implanted under the skin;
All fish were bled before and at different intervals after hormone administration, for the determination of blood GtH levels, similarly as in Example 1.

[2] = tested on: females of rainbow trout, Salmo gaixdneri; assay: Occurrence of ovulation monitored by ovarian biopsy (Example 4)
Procedure: as §1, §2, §3, §4
An additional four groups of 20 females in each group, undergoing advanced stages of vitellogenesis, were treated as above and used for monitoring the state of ovarian development and the occurrence of ovulation. An overian biopsy was sampled from these females every 2 to 4 days for 30 days post-treatment.

[3] = tested on: Female seabream (Sparus aurata); assay: Plasma GtH levels by specific homologous radioimmunoassay after GnRHa administration (Example 1); settings: FIG. 1
Procedure: (§5) Female seabream (Sparus aurata) reaching final stages of vitellogenesis received one of the following treatment of GnRHa - an analog of mammalian GNRH ([D-Ala^6 -Pro^9 -NET]-LHRH):
(§6) 1. An intramuscular injection of GnRHa in a saline solution (10 μg GnRHa/kg body weight which is an acceptable amount for injection);
(§7) 2. Implantation of a Silastic implant (Sila.) according to Crim et al., 1986, containing GnRHa (150 μg GnRHa/fish);
(§8) 3. Implantation of a biodegradable copolymer of polylacticpolyglycolic acid (Z. implant) containing GnRHa (150 μg GnRHa/fish);
(§9) 4. Placebo injection of saline (Control).
Before the treatment and at various intervals thereafter, the fish were bled. After withdrawing a blood sample the fish were returned into the water. GtH levels were determined in the withdrawn blood sample by specific homologous radioimmunoassay. The results are shown in FIG. 1 of the annexed drawings.

[4] = tested on: Female seabream (Sparus aurata); assay: Spawning activity of treated females kept with two males (Example 1); settings: spawning activity = tens of thousands of fertilized eggs per day over more than one week
Procedure: as §5, §6, §7, §8, §9
Additionally, several treated, non-bled females from each treatment group were kept, each in a separate container, which was connected to an egg collector, together with two males. The females were followed for their spawning activity, which was defined in this experiment as tens of thousands of fertilized eggs collected per day over a period of more than one week.

## [D-Ala^6 -Pro^9 -NET]-LHRH [Group 1]
[1]
  period of GtH level surge in plasma: about 48 hrs.
[2]; 6 days post treatment
  degree of ovulation (in percent of ovulated females): 30%
[2]; 9 days post treatment
  degree of ovulation (in percent of ovulated females): 40%
[2]; 30 days post treatment
  degree of ovulation (in percent of ovulated females): 60%
[2]; versus control group
  acceleration / synchronization of ovulation: did not accelerate or synchronize ovulation
[3]
  plasma GtH level / GtH release: decreased rapidly
[4]
  percentage of the females showing spawning activity: 25%
